Assay [1] has as its target T1, human PPAR γ 2 (Homo sapiens, UniProt P37231).
T1 construct: expressed in transfected cells; host or cells: human osteosarcoma MG63, transiently co-transfected with pSG5-hPPARg and the reporter pGV-P2-PPRE
T1 sequence (P37231 1-505): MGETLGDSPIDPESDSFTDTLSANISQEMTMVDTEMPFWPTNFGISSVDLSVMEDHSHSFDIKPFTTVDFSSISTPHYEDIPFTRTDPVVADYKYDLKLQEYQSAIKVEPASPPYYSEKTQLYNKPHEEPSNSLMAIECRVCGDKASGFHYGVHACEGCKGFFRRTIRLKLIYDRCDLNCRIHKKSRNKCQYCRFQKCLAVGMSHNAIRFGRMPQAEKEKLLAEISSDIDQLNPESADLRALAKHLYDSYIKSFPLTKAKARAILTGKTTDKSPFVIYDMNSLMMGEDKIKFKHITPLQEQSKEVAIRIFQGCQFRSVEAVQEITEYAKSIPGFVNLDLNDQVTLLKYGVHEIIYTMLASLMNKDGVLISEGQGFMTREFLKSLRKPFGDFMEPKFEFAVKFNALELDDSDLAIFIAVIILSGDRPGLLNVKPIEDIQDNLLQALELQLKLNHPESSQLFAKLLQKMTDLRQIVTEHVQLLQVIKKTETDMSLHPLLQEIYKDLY
As to the kind of experiment: PPAR γ transcriptional activity, luciferase reporter, test compound alone. The format is cell-based. As to conditions: concentration indicating Emax/2, MG63 cells transfected with pSG5-hPPARg and pGV-P2-PPRE, 24 hr. In a few lines: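 Human osteosarcoma MG63 cells transiently co-transfected with human PPARγ2 expression plasmid and PPRE-luciferase reporter (rat acyl-CoA oxidase promoter element), then exposed 24 h to test compound alone. Luciferase luminescence gave dose-response curves; EC50 is the concentration giving half of the compound's maximal activity (Emax).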
A general note: A reporter such as luciferase makes a cellular process visible.

For assay [2], the target named is T1, human PPAR γ 2. Briefly: Inhibitory activity against PPAR γ transcription in the presence of agonist compound A, luciferase reporter. The format is cell-based. To be noted: in the presence of 10 nM compound A (agonist); MG63 cells transfected with pSG5-hPPARg and pGV-P2-PPRE; 24 hr.

For orientation: EC50 means the midpoint of the concentration-response curve. A lower EC50 goes with higher potency in that assay. In general, IC50 refers to the point on the concentration scale where inhibition reaches its midpoint. At human PPAR γ 2 [1], `Cn1c(NC(=O)c2cc([N+](=O)[O-])ccc2Cl)nc2ccccc21` [Example 82, N-(1-Methylbenzimidazol-2-yl)-(2-chloro-5-nitrophenyl)carboxamide] had an EC50 of 260 nM. Further, the IC50 at human PPAR γ 2 [2] is 400 nM.

For the compound `O=C(Nc1nncs1)c1cc([N+](=O)[O-])ccc1Cl` [Example 85, N-(1,3,4-Thiadiazol-2-yl)-(2-chloro-5-nitrophenyl)carboxamide], on human PPAR γ 2 [1], the EC50 amounted to 28 nM. Besides, the IC50 at human PPAR γ 2 [2] worked out at 91 nM.

Regarding `O=C(Nc1cccc2nsnc12)c1cc([N+](=O)[O-])ccc1Cl` [Example 86, N-(2,1,3-Benzothiazol-4-yl)-(2-chloro-5-nitrophenyl)carboxamide], at human PPAR γ 2 [1], the EC50 was 11 nM. Also, the IC50 at human PPAR γ 2 [2] worked out at 710 nM.

Regarding `O=C(Nc1ccc(S(=O)(=O)Nc2nccs2)cc1)c1cc([N+](=O)[O-])ccc1Cl` [Example 96, N-[4-(Thiazol-2-yl)aminosulfonyl]phenyl-(2-chloro-5-nitrophenyl)carboxamide], the EC50 on human PPAR γ 2 [1] stood at 22 nM. The IC50 on human PPAR γ 2 [2] was found to be 650 nM.

`Cc1cc(NS(=O)(=O)c2ccc(NC(=O)c3cc([N+](=O)[O-])ccc3Cl)cc2)no1` [Example 99] had an EC50 on human PPAR γ 2 [1] of 34 nM. The concentration for half-maximal inhibition (IC50) at human PPAR γ 2 [2] was 680 nM.

At human PPAR γ 2 [1], `O=C(Nc1ccc(S(=O)(=O)Nc2ccc(Cl)nn2)cc1)c1cc([N+](=O)[O-])ccc1Cl` [Example 102, N-[4-[(6-Chloropyridazin-3-yl)aminosulfonyl]phenyl]-(2-chloro-5-nitrophenyl)carboxamide] gave an EC50 of 43 nM. Also, at human PPAR γ 2 [2], the IC50 was found to be 490 nM.

`COc1cnc(NS(=O)(=O)c2ccc(NC(=O)c3cc([N+](=O)[O-])ccc3Cl)cc2)nc1` [Example 105, N-[4-[(5-Methoxypyrimidin-2-yl)aminosulfonyl]phenyl]-(2-chloro-5-nitrophenyl)carboxamide] yielded an EC50 on human PPAR γ 2 [1] of 87 nM. For the same compound, the IC50 on human PPAR γ 2 [2] was 710 nM.

`N=C(N)NS(=O)(=O)c1ccc(NC(=O)c2cc([N+](=O)[O-])ccc2Cl)cc1` [Example 106, N-[4-(Amidinoaminosulfonyl)phenyl]-(2-chloro-5-nitrophenyl)carboxamide] came in with an EC50 on human PPAR γ 2 [1] of 49 nM. Further, the IC50 at human PPAR γ 2 [2] is 360 nM.

Take `O=C(Nc1ccc(S(=O)(=O)Nc2ccnn2-c2ccccc2)cc1)c1cc([N+](=O)[O-])ccc1Cl` [Example 108, N-[4-[(2-Phenyl-(2H)-pyrazol-3-yl)aminosulfonyl]phenyl]-(2-chloro-5-nitrophenyl)carboxamide]: the EC50 at human PPAR γ 2 [1] amounted to 57 nM. Further, at human PPAR γ 2 [2], the IC50 was 59 nM.

With `O=C(Nc1nnc(-c2ccccc2)s1)c1cc([N+](=O)[O-])ccc1Cl` [Example 110, N-(5-Phenyl-[1,3,4]thiadiazol-2-yl)-(2-chloro-5—nitrophenyl)carboxamide], a half-maximal effect at human PPAR γ 2 [1] (EC50) was put at 15 nM. Besides, on human PPAR γ 2 [2], the IC50 came to 190 nM.

For `O=C(Nc1nc(-c2ccc(F)c(F)c2)cs1)c1cc([N+](=O)[O-])ccc1Cl` [Example 111, N-[4-(3,4-Difluorophenyl)thiazol-2-yl]-(2-chloro-5-nitrophenyl)carboxamide], the EC50 at human PPAR γ 2 [1] was 79 nM. Further, the IC50 on human PPAR γ 2 [2] was 27 nM.

In turn, `Cc1ccc(S(=O)(=O)Nc2ccc(NC(=O)c3cc([N+](=O)[O-])ccc3Cl)cc2)cc1` [Example 116, N-[4-(4-Toluenesulfonylamino)phenyl]-(2-chloro-5-nitrophenyl)carboxamide] had an EC50 at human PPAR γ 2 [1] of 11 nM. The IC50 on human PPAR γ 2 [2] worked out at 55 nM.

`CC(=O)Nc1ccc(NC(=O)c2cc([N+](=O)[O-])ccc2Cl)cc1` [Example 117, N-(4-Acetylaminophenyl)-(2-chloro-5-nitrophenyl)carboxamide] registered an EC50 on human PPAR γ 2 [1] of 8.7 nM. Further, the IC50 at human PPAR γ 2 [2] was 120 nM.

Take `O=C(Nc1ccc(NC(=O)c2cc([N+](=O)[O-])ccc2Cl)cc1)c1ccccc1` [Example 119, N-(4-Benzoylaminophenyl)-(2-chloro-5-nitrophenyl)carboxamide]: on human PPAR γ 2 [1], the concentration for a half-maximal effect (EC50) was determined as 21 nM. Also, the IC50 at human PPAR γ 2 [2] is 36 nM.

The compound `O=C(Nc1ccc(NC(=O)c2cc([N+](=O)[O-])ccc2Cl)cc1)c1ccncc1` [Example 125, N-[4-(Pyridin-4-ylcarbonylamino)phenyl]-(2-chloro-5-nitrophenyl)carboxamide] returned an EC50 at human PPAR γ 2 [1] of 19 nM. Also, the concentration for half-maximal inhibition (IC50) on human PPAR γ 2 [2] is 240 nM.

As for `CCCCCCN(CCCCCC)c1ccc(NC(=O)c2cc([N+](=O)[O-])ccc2Cl)cc1` [Example 138, N-[4-(N,N-di-n-Hexylamino)phenyl]-(2-chloro-5-nitrophenyl)carboxamide], on human PPAR γ 2 [1], the concentration for a half-maximal effect (EC50) was found to be 130 nM. The IC50 on human PPAR γ 2 [2] amounted to 20 nM.

For `CC(C)(C)c1cc(C(=O)Nc2ccc(NC(=O)c3cc([N+](=O)[O-])ccc3Cl)cc2)cc(C(C)(C)C)c1O` [Example 157, N-[4-[(3,5-di-tert-Butyl-4-hydroxybenzoyl)amino]phenyl]-(2-chloro-5-nitrophenyl)carboxamide], the 50% effective concentration (EC50) on human PPAR γ 2 [1] is 760 nM. For the same compound, on human PPAR γ 2 [2], the IC50 is 23 nM.

With `CN(C)c1cccc(NC(=O)c2cc([N+](=O)[O-])ccc2Cl)c1` [Example 176, N-(3-Dimethylamino)phenyl-(2-chloro-5-nitrophenyl)carboxamide], the EC50 on human PPAR γ 2 [1] came to 11 nM. Besides, at human PPAR γ 2 [2], the IC50 worked out at 66 nM.

On to `O=C(Nc1ccc(S(=O)(=O)Nc2cccnc2)cc1)c1cc([N+](=O)[O-])ccc1Cl` [Example 178], for which the EC50 on human PPAR γ 2 [1] worked out at 16 nM. In addition, the IC50 on human PPAR γ 2 [2] came to 330 nM.

The compound `O=C(Nc1ccc(S(=O)(=O)Nc2ccc(N3CCOCC3)cc2)cc1)c1cc([N+](=O)[O-])ccc1Cl` [Example 179, N-[4-[4-(Morpholin-4-yl)phenyl]aminosulfonyl]phenyl-(2-chloro-5-nitrophenyl)carboxamide] displayed a half-maximal effective concentration (EC50) on human PPAR γ 2 [1] of 780 nM. In addition, at human PPAR γ 2 [2], the IC50 is 56 nM.

`CCCNc1ccc(NC(=O)c2cc([N+](=O)[O-])ccc2Cl)cc1` [Example 181, N-[4-(N-Propylamino)phenyl]-(2-chloro-5-nitrophenyl)carboxamide] yielded an EC50 at human PPAR γ 2 [1] of 5.6 nM. Besides, the IC50 on human PPAR γ 2 [2] is 20 nM.

On to `CCCN(CC)c1ccc(NC(=O)c2cc([N+](=O)[O-])ccc2Cl)cc1` [Example 189, N-[4-(N-Ethyl-N-propylamino)phenyl]-(2-chloro-5-nitrophenyl)carboxamide], for which, on human PPAR γ 2 [1], the EC50 came out at 0.7 nM. For the same compound, the IC50 on human PPAR γ 2 [2] came to 3.6 nM.

`O=C(Nc1cccc(O)c1)c1cc([N+](=O)[O-])ccc1Cl` [Example 191, N-(3-Hydroxyphenyl)-(2-chloro-5-nitrophenyl)carboxamide] registered a 50% effective concentration (EC50) at human PPAR γ 2 [1] of 4.2 nM. In addition, the IC50 on human PPAR γ 2 [2] turned out to be 30 nM.

`CCN(c1ccc(NS(=O)(=O)c2ccc(NC(=O)c3cc([N+](=O)[O-])ccc3Cl)cc2)cc1)C(C)C` [Example 232, N-[[4-[4-(N-Ethyl-N-isopropylamino)phenyl]aminosulfonyl]phenyl]-(2-chloro-5-nitrophenyl)carboxamide]: at human PPAR γ 2 [1], the response was half-maximal at 610 nM (EC50). Besides, the IC50 at human PPAR γ 2 [2] stood at 56 nM.

At human PPAR γ 2 [1], `CC(O)c1cccc(NC(=O)c2cc([N+](=O)[O-])ccc2Cl)c1` (stereo not shown) [Example 239, N-[3-(1-Hydroxyethyl)phenyl]-(2-chloro-5-nitrophenyl)carboxamide] registered an EC50 of 44 nM. Moreover, the IC50 at human PPAR γ 2 [2] came to 52 nM.

On human PPAR γ 2 [1], `O=C(Nc1ccc(NC(=S)Nc2cccnc2)cc1)c1cc([N+](=O)[O-])ccc1Cl` [Example 257, N-[4-[(Pyridin-3-yl)aminothiocarbonylamino]phenyl]-(2-chloro-5-nitrophenyl)carboxamide] registered an EC50 of 120 nM. In addition, the IC50 at human PPAR γ 2 [2] was determined as 130 nM.

`O=C(Nc1ccc(NC(=S)Nc2ccncc2)cc1)c1cc([N+](=O)[O-])ccc1Cl` [Example 259, N-[4-[(Pyridin-4-yl)aminothiocarbonylamino]phenyl]-(2-chloro-5-nitrophenyl)carboxamide] registered an EC50 at human PPAR γ 2 [1] of 0.7 nM. Also, the IC50 at human PPAR γ 2 [2] is 31 nM.

In the case of “N-(Ethoxyphenyl)-(2-chloro-5-nitrophenyl)carboxamide [Example 229]”, on human PPAR γ 2 [1], the EC50 amounted to 160 nM. Besides, the IC50 at human PPAR γ 2 [2] was determined as 46 nM.

Compound “N-[4-(Pyrrolidinylsulfonyl)phenyl]-(2-chloro-5-nitrophenyl)carboxamide [Example 152]” registered an EC50 on human PPAR γ 2 [1] of 8.7 nM. Moreover, the half-inhibitory concentration (IC50) on human PPAR γ 2 [2] worked out at 42 nM.

For the origin of these results see patent US20030134859A1 (SANKYO COMPANY, LIMITED, priority 2000, published 2003).
